Measurements reported in US8354374B2, “Peptides having pharmacological activity for treating disorders associated with altered cell migration, such as cancer” (Pharmaphelix S.R.L., priority 2006, dated 2013).
Square brackets hold non-standard residues; d marks the D form. Peptide text beside a SMILES is read from it. ξ: configuration not given here. ξαMeF = CC(N)(Cc1ccccc1)C(=O)O; Aib = CC(C)(N)C(=O)O

Key:
[1] = tested on: human fibrosarcoma HT1080 cells; test: Directional migration towards 10% FBS in Boyden chamber; type: cell-based
Procedure: The effect of PICM57 described in example 3 on the cell migration of human fibrosarcoma HT1080 cells was tested. A Boyden chamber equipped with polycarbonate filters, having pores with a diameter of 8 μm (Nucleopore), free of polyvinylpyrrolidone and coated with 5 μg/ml of vitronectin (Promega), was used, as reported in the literature (Carriero et al., Cancer Res. 59, 5307, 1999). 3×10^4 cells, in serum-free DMEM (Dulbecco Modified Eagle Medium), were deposited in the upper compartment of the Boyden chamber. The lower chamber was packed with DMEM containing 10% FBS (Foetal Bovine Serum) as a source of chemotactics, in the presence of increasing concentrations of PICM57. The cells were incubated for 4 h at 37° C. in humidified air containing 5% CO2. After incubation, the cells adhering to the upper surface of the filter were mechanically removed, and the migrated cells adhering to the lower surface of the filter were fixed in ethanol, stained with haematoxylin, and counted at 200× in 10 fields/filter chosen at random. The directional migration in response to FBS in the absence of PICM57 was taken as 100% and the effect of PICM57 on cell migration was evaluated in percentage terms. The data represent the average of three independent experiments conducted in duplicate. The antagonistic effect of PICM57 on migration of HT1080 cells towards FBS is dose-dependent (Table 2). It begins at concentrations of 1 aM, reaches 50% of its maximum value at concentrations of 1 fM, and reaches the maximum effect at concentrations of 10 fM (66% of inhibition).
The mobility induced by FBS in the presence of Metastin[45-54] was evaluated under the same experimental conditions (Table 3). […]

[2] = tested on: human fibrosarcoma HT1080 cells; test: In vitro cell invasion through matrigel towards 10% FBS (Boyden chamber); type: cell-based
Procedure: The in vitro cell invasion tests were conducted with Boyden chambers, using polyvinylpyrrolidone free filters, having pores with a diameter of 8 μm (Nucleopore), coated with 70 μg/filter of matrigel and DMEM containing 10% FBS as chemoattractant (Silvestri et al. Int. J. Cancer 102, 562-571, 2002). Human fibrosarcoma HT1080 cells (2×10^5 cells/sample) were deposited in the upper compartment of the chamber in a serum-free culture medium. The lower compartment of the chamber contained DMEM with the addition of 10% FBS as chemotactic source, and the peptides to be assayed, tested at the concentration indicated. The chambers, thus assembled, were placed at 37° C. in a humidified environment containing 5% CO2. After 18 hrs, the cells which had crossed the matrigel and adhered to the lower surface of the filters were fixed, stained and counted. The data represent the average of two independent experiments conducted in duplicate. The results, set out in Table 8, are expressed as the percentage of cells that invade the matrigel in the presence of FBS, but in the absence of peptide (100%). The inhibiting effect of PICM1 and PICM57 on the invasiveness of HT1080 cells is dose-dependent.

[3] = tested on: human fibrosarcoma HT1080 cells in CD1 nude mice; test: Anti-metastatic effect in vivo: pulmonary metastasis of HT1080 cells injected into the caudal vein; settings: 3 mg/Kg every 48 h
Procedure: The anti-metastatic power of PICM1 was evaluated on an animal model. 2×10^6 human fibrosarcoma HT1080 cells, which cause pulmonary metastasis in the experimental model (Schweinitz A, et al., J. Biol. Chem. 279:33613, 2004), were suspended in saline solution and injected into the caudal vein of twenty 7-week-old CD1 nude mice. 24 hours after the inoculation of the tumour cells, groups of 10 animals were treated with a slow injection of 3 mg/Kg of PICM1, dissolved in 100 μl of saline solution, every 48 h, with the animal immobilised. The 10 control animals received the same injection treatment, but with the saline solution only. Each animal was weighed and inspected for dyspnoea every day. […] All the treated and control animals were sacrificed, and an autopsy was conducted. The lungs, liver, kidneys, spleen and heart were subjected to macroscopic and microscopic analysis.

[4] = tested on: HUVEC cells (Human Umbilical Vein Endothelial Cells); test: In vitro neo-angiogenesis: VEGF-dependent tubule formation on matrigel; type: cell-based
Procedure: The in vitro neo-angiogenesis tests were conducted by exploiting the ability of endothelial cells to form, in the presence of pro-angiogenic factors, cords which extend to form a network of microtubules on a layer of polymerised matrigel. For this type of assay, 5×10^4 HUVEC cells (Human Umbilical Vein Endothelial Cells) per well were plated in 24-well plates, in which 300 μl of matrigel was left to polymerise in the presence of 40 ng/ml of VEGF (Vascular Endothelial Growth Factor), used as pro-angiogenic agent, and the peptides indicated, at different concentrations. Tubule formation was evaluated after 18 hours' incubation at 37° C. in 5% CO2, by counting the number of tubular structures in at least 5 fields, chosen at random, with an inverted microscope. The effect of the peptides on VEGF-dependent tubule-forming activity is calculated as a percentage of the number of tubular structures counted in the presence of VEGF (taken as 100%). The data (Table 9) represent the average of two experiments conducted in duplicate. The antagonistic effect of PICM1 and PICM57 on neo-angiogenesis in vitro is dose-dependent. This effect begins at concentrations of aM and reaches the peak action at a concentration of pM (20% of the number of tubular structures counted); 50% of the maximum effect is reached at concentrations of fM. The anti-angiogenic effect exerted by 50 nM of endostatin and the low inhibitory effect exerted by metastin[45-54] are shown by way of comparison.

[5] = tested on: Cell lines of human or murine origin, derived from various tissues; test: Directional migration towards 10% FBS, all the cell lines tested; type: cell-based; settings: 100 pM PICM1
Procedure: Cell lines of human or murine origin, derived from various tissues, were subjected to in vitro directional migration tests employing Boyden chambers as described in example 4, and using 10% FBS as chemotactic source, in the presence/absence of 100 pM PICM1. Directional migration in response to FBS in the absence of PICM1 was taken as 100%, and the effect of PICM1 on cell migration was evaluated as a percentage of said value. The data represent the average of two independent experiments conducted in duplicate. In all the cell lines tested, an inhibiting effect of PICM1 on cell migration was observed (Table 4). Although the extent of the inhibition differs between the cell lines used, it was never less than 50%, and was also observed in murine melanoma B16 cells, which are unresponsive to Metastin (Ohtaki, T., et al. (2001) Nature 411, 613-617).

rat = settings: acute
mouse = settings: acute
in vivo [6] = settings: mouse
in vivo [7] = settings: rat
[8] = tested on: murine melanoma B16 cells; settings: Ohtaki et al. 2001; cited from earlier work
FPR = molecular target: T1, FPR (Homo sapiens, UniProt P21462); settings: cells pre-incubated with 10 μM peptide
T1 sequence (P21462 1-350): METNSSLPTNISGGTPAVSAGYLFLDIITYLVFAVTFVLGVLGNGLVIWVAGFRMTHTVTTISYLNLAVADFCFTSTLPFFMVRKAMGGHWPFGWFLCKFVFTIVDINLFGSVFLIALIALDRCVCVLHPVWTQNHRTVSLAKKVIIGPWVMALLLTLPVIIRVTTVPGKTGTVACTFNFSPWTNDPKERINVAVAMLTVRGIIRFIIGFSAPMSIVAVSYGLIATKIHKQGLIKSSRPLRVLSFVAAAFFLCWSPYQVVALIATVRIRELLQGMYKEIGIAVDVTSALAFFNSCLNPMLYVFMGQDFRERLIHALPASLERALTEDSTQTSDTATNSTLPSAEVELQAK

[9] = 10 pM peptide, 10% FBS alone = 100%
[10] = 10 nM peptide, 10% FBS alone = 100%
[11] = 1 aM peptide, migration toward 10% FBS alone = 100%
[12] = 10 aM peptide, 10% FBS alone = 100%
[13] = 10 fM peptide, 10% FBS alone = 100%
[14] = injection, sacrifice after 22 days

## CC(=O)N[C@@H](CCCNC(=N)N)C(=O)N[C@@H](CCC(=O)O)C(=O)N[C@@H](CCCNC(=N)N)C(=O)N[C@@H](Cc1ccccc1)C(N)=O [PICM1, Ac-Arg-Glu-Arg-Phe-NH2] (Ac-RERF-NH2)
[1]; [9]
  Cell Migration towards 10% FBS (%): 46%
[1]; 100 pM peptide, 10% FBS alone = 100%
  Cell Migration towards 10% FBS (%): 34%
[1]; [10]
  Cell Migration towards 10% FBS (%): 35%
[1]; [11]
  Cell Migration towards 10% FBS (%): 99%
[1]; [12]
  Cell Migration towards 10% FBS (%): 70%
[1]; [13]
  Cell Migration towards 10% FBS (%): 56%
[2]; 10 pM peptide
  Cell invasion towards 10% FBS (%): 55%
[2]; 10 nM peptide
  Cell invasion towards 10% FBS (%): 44%
[2]; 1 aM peptide, FBS without peptide = 100%
  Cell invasion towards 10% FBS (%): 100%
[2]; 10 aM peptide
  Cell invasion towards 10% FBS (%): 101%
[2]; 10 fM peptide
  Cell invasion towards 10% FBS (%): 62%
[3]; [14]
  extensive sub-pleural neoformations on macroscopic analysis of the lungs: not observed in the treated animals
  pulmonary metastasis on microscopic observation: did not exhibit the presence of metastasis
[3]; autopsy
  histo-morphological alterations of lungs, liver, kidneys, spleen and heart: None of the organs examined, of the controlled or treated animals, presented any histo-morphological alterations, with the exception of the lungs
[4]
  concentration at which 50% of the maximum effect on neo-angiogenesis is reached: fM
[4]; 10 pM peptide
  VEGF-dependent tubule-forming activity (%): 30%
[4]; 10 nM peptide
  VEGF-dependent tubule-forming activity (%): 22%
[4]; 1 aM peptide, 40 ng/ml VEGF = 100%
  VEGF-dependent tubule-forming activity (%): 104%
[4]; 10 aM peptide
  VEGF-dependent tubule-forming activity (%): 77%
[4]; 10 fM peptide
  VEGF-dependent tubule-forming activity (%): 65%
[4]; peak action at a concentration of pM
  tubular structures at peak action (% of VEGF-only control): 20%
[5]
  extent of the inhibition of cell migration: ≥ 50%

## CC(=O)N[C@@H](CCCNC(=N)N)C(=O)NC(C)(C)C(=O)N[C@@H](CCCNC(=N)N)C(=O)NC(C)(Cc1ccccc1)C(N)=O (stereo partly drawn) [PICM57, Ac-Arg-Aib-Arg-α(Me)Phe-NH2] (Ac-R[Aib]R[ξαMeF]-NH2)
rat
  dose with all animals alive: 58 mg/kg
  dose with all animals dead: 70 mg/kg
mouse
  dose with all animals alive: 28 mg/kg
  dose with all animals dead: 32 mg/kg
In vivo [6]
  LD50: 30 mg/kg
In vivo [7]
  LD50: 65 mg/kg

## Endostatin [reference compound]
[4]; 10 nM peptide
  VEGF-dependent tubule-forming activity (%): 30%

## Metastin
[8]
  responsiveness of B16 cells: unresponsive

## Metastin[45-54] [reference compound]
[1]; [9]
  Cell Migration towards 10% FBS (%): 53%
[1]; 10 nM Metastin[45-54] vs. 10 fM PICM57
  concentration needed for comparable inhibition of migration, times greater than PICM57: 1,000 times
[1]; [10]
  Cell Migration towards 10% FBS (%): 56%
[1]; [11]
  Cell Migration towards 10% FBS (%): 100%
[1]; [12]
  Cell Migration towards 10% FBS (%): 83%
[1]; [13]
  Cell Migration towards 10% FBS (%): 73%
FPR
  reduction of binding of fluorescinated formyl-Nle-Leu-Phe-Nle-Tyr-Lys to the cell surface: does not modify
[4]; 10 pM peptide
  VEGF-dependent tubule-forming activity (%): 63%
[4]; 10 nM peptide
  VEGF-dependent tubule-forming activity (%): 65%
[4]; 10 fM peptide
  VEGF-dependent tubule-forming activity (%): 90%
